According to US20070282004A1, “Use of a Cyclopentenone Prostaglandin for Delaying for the Onset and/or Preventing the Continuation of Labour” (Imperial College Innovations Limited, priority 2003, published 2007):

Experiments:
[1] = biological target: T1, NF-κB (Homo sapiens, UniProt P19838+Q04206); assay: EMSA of NF-κB DNA binding in nuclear extracts of treated myometrial cells; type: cell-based; conditions: for IL-1β-induced NF-κB DNA binding (EMSA): myometrial cells, treated 2 h, then IL-1β 15 min
T1 construct: nuclear protein extracts from myometrial cells; endogenous in cells; host or cells: primary human myometrial cells (term, passage 1-4)
T1 sequence (Q04206 whole entry): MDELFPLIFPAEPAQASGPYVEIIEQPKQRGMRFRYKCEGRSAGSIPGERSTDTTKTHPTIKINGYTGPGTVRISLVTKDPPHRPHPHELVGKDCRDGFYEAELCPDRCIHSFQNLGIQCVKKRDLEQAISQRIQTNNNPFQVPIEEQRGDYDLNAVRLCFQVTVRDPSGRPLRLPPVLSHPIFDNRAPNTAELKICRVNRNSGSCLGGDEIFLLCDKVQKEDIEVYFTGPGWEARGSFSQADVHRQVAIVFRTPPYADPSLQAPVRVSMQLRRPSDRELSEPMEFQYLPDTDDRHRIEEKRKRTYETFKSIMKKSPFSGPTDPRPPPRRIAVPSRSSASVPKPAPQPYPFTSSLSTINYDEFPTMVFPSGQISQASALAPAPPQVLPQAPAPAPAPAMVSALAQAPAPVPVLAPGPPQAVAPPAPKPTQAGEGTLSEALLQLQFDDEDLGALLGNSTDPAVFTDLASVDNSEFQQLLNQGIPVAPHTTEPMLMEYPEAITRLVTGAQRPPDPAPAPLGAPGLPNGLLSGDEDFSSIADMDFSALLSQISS
T1 sequence (P19838 1-433 limits assumed): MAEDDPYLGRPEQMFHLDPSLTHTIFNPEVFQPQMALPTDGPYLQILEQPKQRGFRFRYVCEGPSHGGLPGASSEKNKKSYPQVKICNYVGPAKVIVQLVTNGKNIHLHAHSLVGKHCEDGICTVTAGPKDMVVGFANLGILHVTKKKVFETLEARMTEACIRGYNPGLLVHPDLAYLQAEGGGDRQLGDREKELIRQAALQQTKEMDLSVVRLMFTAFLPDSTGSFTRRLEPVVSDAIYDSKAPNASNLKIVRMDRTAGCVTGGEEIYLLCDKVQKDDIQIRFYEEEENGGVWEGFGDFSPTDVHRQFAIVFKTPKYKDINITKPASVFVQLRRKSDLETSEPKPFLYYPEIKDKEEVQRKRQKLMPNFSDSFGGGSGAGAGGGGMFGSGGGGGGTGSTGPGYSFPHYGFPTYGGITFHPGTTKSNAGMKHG
Procedure: Myometrial tissue was collected at term from the upper margin of uterine incision at the time of lower segment caesarean section either prior to the onset of labour (L−) or […] (L+). L+ samples were collected by Dr Mark Johnson and Dr S Soorrana at Chelsea & Westminster Hospital. Myometrial tissue was dissected, rinsed in PBS, and digested in serum-free DMEM containing 15 mg/ml collagenase 1A (Sigma), 15 mg/ml collagenase X, and 50 mg/ml bovine serum albumin for 45 min at 37° C. The cell suspension was filtered through a cell strainer, centrifuged at 400 g for 5 min, and the pellet re-suspended and plated out in DMEM, 10% FCS (Helena BioScience), 1% L-glutainine, 1% penicillin-streptomycin. Cells were used between passage numbers 1-4.
Nuclear and cytosolic protein extracts were obtained from cultured amnion cells as described by Schreiber et al (1989). For nuclear/cytosolic fractionation, confluent cell monolayers were scraped and lysed using a buffer containing 10 mM HEPES, 10 mM KCl, 0.1 mM EDTA, 0.1 mM EGTA, 2 mM DTT, 1% (v/v) NP-40 and complete protease inhibitor tablets (CPIs, Roche), diluted to manufacturer's instructions. Cell lysates were incubated on ice for 10 min and NP-40 added to a final concentration of 1% (v/v). Lysates were vortexed for 10 secs and centrifuged for 30 secs at 4° C., 12000 g. The supernatants were retained as the cytosolic protein extracts. The pellets were resuspended in buffer containing 10 mM HEPES, 10 mM KCl, 0.1 mM EDTA, 0.1 mM EGTA, 2 mM DTT, 400 mM NaCl, 1% NP-40 (v/v) and CPIs. Samples were shaken vigorously for 15 min in an ice bath. The nuclear protein extracts were obtained in the supernatant following a 5 min centrifugation at 4° C., 12000 g.
Sense and antisense strands (175 nmole/ml each) were incubated in annealing buffer (10 mM Tris-HCl pH7.5, 100 mM NaCl, 1 mM EDTA) for 10 min at 65° C., and allowed to cool at room temperature for 2 h. 3.5 pmole double-stranded oligonucleotides were end-labelled with 0.37 MBq ^32P(γATP) by incubating for 30 min at 37° C. with T4 polynucleotide kinase. Labelled oligonucleotides were recovered by centrifugation at 3000 rpm for 2 min through MicroSpin G-25 or G-50 sephadex columns (Amersham Biosciences).
3-5 μg protein extracts were incubated on ice for 1 h with non-radiolabelled non-specific oligonucleotide (poly(dI-dC) or Oct-1) in a binding buffer (20% (v/V) glycerol, 5 mM MgCl2, 2 mM EDTA, 50 mM Tris-HCl pH7.5, 250 mM NaCl, 2 mM DTT), followed by a 45 min incubation with 0.035 pmole ^32P(γ(ATP)-end labelled oligonucleotide probes:
Oct-1 or SP-1 consensus sequences were used as a controls for a NF-κB-specific effect. The resulting protein/DNA complexes were separated in a 4% acrylamide gel, the gel dried under vacuum at 80° C. and exposed to X-ray film. For supershift analysis, samples were incubated with 2 μg antibodies for 30 min on ice prior to incubation with oligonucleotides. Non-radio-labelled oligonucleotides were used at 100-fold molar excess for specific and non-specific competition for DNA binding. Reagents for EMSA were obtained from Promega Life Sciences, Delta House, Chilworth Research Centre, Southampton SO16 7NS, United Kingdom.

[2] = biological target: T2, PPAR-γ (Homo sapiens, UniProt P37231); conditions: as stated from the literature; cited from earlier work
T2 sequence (P37231 1-505): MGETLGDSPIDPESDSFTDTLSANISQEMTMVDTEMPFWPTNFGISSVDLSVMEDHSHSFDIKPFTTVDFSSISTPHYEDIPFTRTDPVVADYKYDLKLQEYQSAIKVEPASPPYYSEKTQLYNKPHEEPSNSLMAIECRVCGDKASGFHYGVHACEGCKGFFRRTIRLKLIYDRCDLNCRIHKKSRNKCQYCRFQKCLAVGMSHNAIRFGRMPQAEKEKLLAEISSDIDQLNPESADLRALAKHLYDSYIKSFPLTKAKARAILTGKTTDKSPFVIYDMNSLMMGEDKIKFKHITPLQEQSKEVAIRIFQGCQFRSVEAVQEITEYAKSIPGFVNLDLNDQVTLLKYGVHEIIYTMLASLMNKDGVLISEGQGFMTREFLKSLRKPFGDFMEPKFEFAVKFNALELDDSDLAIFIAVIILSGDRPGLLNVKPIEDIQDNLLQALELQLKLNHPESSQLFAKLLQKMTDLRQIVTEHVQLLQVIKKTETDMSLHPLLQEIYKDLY

[3] = test system: NF-κB; assay: NF-κB-dependent luciferase reporter (κB.BG.Luc) in amnion cells; type: cell-based, human; conditions: L− or L+ amnion cells, treated 2 h, IL-1β 1 ng/ml 6 h
Procedure: . Values are normalised for b-gal reporter activity.
Placentae were obtained from patients at term either at elective Caesarean section prior to labour (L−) or following spontaneous labour onset and vaginal delivery (L+). Amnion cells were prepared as described in Bennett et al., (1989). Briefly, the amnion was separated from the placenta, washed 3× in PBS, cut into strips, and incubated in 0.5 mM EDTA in PBS for 15 min. The strips were washed in PBS 2× and digested with 2.5 mg/ml dispase in serum-free DMEM for 35 min at 37° C. The amnion was then shaken vigorously in DMEM, 10% FCS to dissociate the cells, the remaining strips discarded, and the cell suspension pelleted at 175 g for 10 min and cultured in DMEM, 10% FCS (Sigma), 1% L-glutamine, 1% penicillin-streptomycin.
pGL3.6κB.BG.luc was the reporter construct used to assess NF-κB-mediated transcription, while the mutant pGL3.6κBmut.luc and empty pGL3.BG.luc were used as controls (Schwarzer et al., 1998).
pGL3.6κB.BG.luc: a NF-κB-dependent reporter construct with 6 copies of the NF-κB binding site. It contains two tandem repeats of the sequence 5′-GGG GAC TTT C CC TGGGGACTTTCCCTGGGGACTTTCCC-3′, which contains three copies of the decameric NF-κB binding site (underlined) upstream of a minimal β-globin promoter driving a luciferase gene.
Cells were co-transfected with the renilla vector pRL-CMV or β-galactosidase vector pCH110 as internal controls for transfection efficiencies.

Compound | Protein binding to a consensus Oct-1 or Sp-1 probe (control) ([1]; myometrial and amnion cells) | IL-1β-induced NF-κB DNA binding (EMSA) [1] | IL-1β-induced NF-κB DNA binding (EMSA) ([1]; listed as 15dPGJ2) | PPAR agonist / ligand activity [2] | IL-1β-induced NF-κB transcriptional activity (κB.BG.Luc reporter) [3]
CCCCCC=CC=C1C(=O)C=C[C@@H]1CC=CCCCC(=O)O [15d-PGJ2, 15-deoxy-Δ^12,14prostaglandin J2] | unaffected | inhibited IL1-β-induced NF-κB DNA binding in a dose-dependent manner | inhibition | is a PPAR agonist | inhibited
CCCCC[C@H](O)/C=C/[C@H]1C=CC(=O)[C@@H]1CCCCCCC(=O)O [PGA1, prostaglandin A1] |  | inhibition |  | does not act as a PPAR ligand | inhibited
